# Test results as given in patent publication US10934302B1, “SHP2 phosphatase inhibitors and methods of use thereof” (Relay Therapeutics, Inc., priority 2018, dated 2021).
# Biological target: SHP2 (Homo sapiens (Human), UniProt Q06124)
# Experiment: SHP2 allosteric inhibition assay (DiFMUP prompt fluorescence)
# Assay type: biochemical
# Conditions: not given
# Chain of SHP2 (Q06124 whole entry): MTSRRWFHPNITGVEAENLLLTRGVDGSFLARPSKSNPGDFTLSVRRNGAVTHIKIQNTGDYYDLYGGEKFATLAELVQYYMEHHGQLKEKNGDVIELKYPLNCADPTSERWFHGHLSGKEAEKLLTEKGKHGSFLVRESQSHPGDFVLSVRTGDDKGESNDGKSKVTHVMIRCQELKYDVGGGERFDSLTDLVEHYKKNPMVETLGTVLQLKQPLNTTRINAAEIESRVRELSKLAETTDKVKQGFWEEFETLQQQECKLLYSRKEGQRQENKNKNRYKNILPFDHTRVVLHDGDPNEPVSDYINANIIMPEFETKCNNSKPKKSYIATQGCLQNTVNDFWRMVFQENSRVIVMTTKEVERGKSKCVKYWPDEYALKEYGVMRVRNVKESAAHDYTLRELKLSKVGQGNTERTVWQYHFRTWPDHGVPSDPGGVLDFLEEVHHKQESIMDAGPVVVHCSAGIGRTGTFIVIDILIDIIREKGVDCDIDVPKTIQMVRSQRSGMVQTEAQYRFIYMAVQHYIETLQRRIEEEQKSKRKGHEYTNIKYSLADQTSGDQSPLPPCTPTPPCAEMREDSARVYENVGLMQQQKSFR
row,Structure (SMILES),IC50 [nM]
1,"Cc1ccc(C(=O)CSc2cnc(N3CCC4(CC3)Cc3ccccc3[C@H]4N)cn2)cc1 [Example 267, (S)-2-((5-(1-amino-1,3-dihydrospiro[indene-2,4′-piperidin]-1′-yl)pyrazin-2-yl)thio)-1-(p-tolyl)ethan-1-one]",< 50

# Same assay, conditions: 0.25 nM SHP2 activated with 0.5 μM peptide IRS1_pY1172(dPEG8)pY1222; substrate DiFMUP
row,Structure (SMILES),IC50 [nM]
1,"Nc1nccc(Nc2n[nH]c3nc(N4CCC5(CC4)Cc4ccccc4[C@H]5N)cnc23)c1Cl [Example 138, (S)—N4-(6-(1-amino-1,3-dihydrospiro[indene-2,4′-piperidin]-1′-yl)-1H-pyrazolo[3,4-b]pyrazin-3-yl)-3-chloropyridine-2,4-diamine]",≤ 50
2,Nc1nccc(Sc2cnc(N3CCC4(CC3)Oc3ccccc3[C@H]4N)cn2)c1Cl [Example 177],≤ 50
3,"N[C@@H]1c2ccccc2C[C@@]12CC=C(c1cnc3c(N4CCCc5ncccc54)n[nH]c3n1)CC2 (single isomer, unassigned) [Example 173]",> 10000
4,N[C@@H]1c2ccccc2CC12CCN(c1ccc3c(N4CCCCC4)n[nH]c3n1)CC2 [Example 209],1000 to 10000
5,N[C@H]1c2ccccc2CC12CCN(c1cnc3c(Sc4ccnc(Cl)c4Cl)n[nH]c3n1)CC2 [Example 92],≤ 50
6,Cn1c(N2CCC3(CC2)Cc2ccccc2[C@H]3N)ncc(N2CCCc3ccccc32)c1=O [Example 205],50 to 1000
7,"C[C@@H](C(N)=O)N(C)c1n[nH]c2nc(N3CCC4(CC3)Cc3ccccc3[C@H]4N)cnc12 (racemic) [Example 151, (2S)-2-({6-[(3S)-3-amino-1,3-dihydrospiro[indene-2,4′-piperidin]-1′-yl]-1H-pyrazolo[3,4-b]pyrazin-3-yl}(methyl)amino)propanamide]",≤ 50
8,"Nc1nc(N2CCC3(CC2)Cc2ccccc2[C@H]3N)cnc1-c1cccc(Cl)c1Cl [Example 22, (3S)-1′-[6-amino-5-(2,3-dichlorophenyl)pyrazin-2-yl]-1,3-dihydrospiro[indene-2,4′-piperidin]-3-amine]",≤ 50
9,N[C@@H]1c2ccccc2CC12CCN(c1nc3[nH]nc(N4CCCCC4)c3nc1CO)CC2 [Example 103],≤ 50
10,"N[C@@H]1c2ccccc2CC12CCN(c1nc3[nH]ncc3nc1CO)CC2 [Example 104, (S)-(6-(1-amino-1,3-dihydrospiro[indene-2,4′-piperidin]-1′-yl)-1H-pyrazolo[3,4-b]pyrazin-5-yl)methanol]",≤ 50
11,Cn1c(N2CCC3(CC2)Cc2ccccc2[C@H]3N)ncc(SCC2CC2)c1=O [Example 238],≤ 50
12,N[C@H]1c2ccccc2CC12CCN(c1cnc3c(-c4ccnc(Cl)c4Cl)n[nH]c3n1)CC2 [Example 71],≤ 50
13,Cn1c(N2CCC3(CC2)Cc2ccccc2[C@H]3N)nc2[nH]nc(Sc3cccc(Cl)c3Cl)c2c1=O [Example 178],> 10000
14,CO[C@H]1C[C@@H](N2CCN(c3n[nH]c4nc(N5CCC6(CC5)Cc5ccccc5C6N)cnc34)c3ccc(C#N)cc32)C1 (some centres unmarked) [Example 32],≤ 50
15,"Cc1cnc(CO)c(N2CCC3(CC2)Cc2ccccc2[C@H]3N)n1 (single isomer, unassigned) [Example 122]",≤ 50
16,"N[C@@H]1c2ccccc2CC12CCN(c1cnc(Sc3cc[nH]c(=O)c3Cl)cn1)CC2 [Example 131, 4-({5-[(3S)-3-amino-1,3-dihydrospiro[indene-2,4′-piperidin]-1′-yl]pyrazin-2-yl}sulfanyl)-3-chloro-1,2-dihydropyridin-2-one]",≤ 50
17,"Cc1nc2c(N3CCCCC3)n[nH]c2nc1N1CCC2(CC1)Oc1cc(F)ccc1[C@H]2N [Example 278, (3R)-6-fluoro-1′-[5-methyl-3-(piperidin-1-yl)-1H-Pyrazolo[3,4-b]pyrazin-6-yl]-3H-spiro[1-benzofuran-2,4′-piperidin]-3-amine]",≤ 50
18,"CS(=O)(=O)c1cccc2c1CCCN2c1n[nH]c2nc(N3CCC4(CC3)Cc3ccccc3[C@H]4N)c(CO)nc12 [Example 98, {6-[(3S)-3-amino-1,3-dihydrospiro[indene-2,4′-piperidin]-1′-yl]-3-(5-methanesulfonyl-1,2,3,4-tetrahydroquinolin-1-yl)-1H-pyrazolo[3,4-b]pyrazin-5-yl}methanol]",50 to 1000
19,N[C@@H]1c2ccccc2CC12CCN(c1cnc3c(N4CCCc5nc(-c6ccn[nH]6)ccc54)n[nH]c3n1)CC2 [Example 4],≤ 50
20,"Nc1nccc(-c2n[nH]c3nc(N4CCC5(CC4)Cc4ccccc4[C@H]5N)cnc23)c1F [Example 78, (S)-1′-(3-(2-amino-3-fluoropyridin-4-yl)-1H-pyrazolo[3,4-b]pyrazin-6-yl)-1,3-dihydrospiro[indene-2,4′-piperidin]-1-amine]",≤ 50
21,Cc1nccc(Oc2n[nH]c3nc(N4CCC5(CC4)Cc4ccccc4[C@H]5N)cnc23)c1Cl [Example 127],50 to 1000
22,"Cn1ccc(Oc2n[nH]c3nc(N4CCC5(CC4)Cc4ccccc4[C@H]5N)cnc23)c(Cl)c1=O [Example 128, (S)-4-((6-(1-amino-1,3-dihydrospiro[indene-2,4′-piperidin]-1′-yl)-1H-pyrazolo[3,4-b]pyrazin-3-yl)oxy)-3-chloro-1-methylpyridin-2(H)-one]",≤ 50
23,"N[C@H]1c2ccccc2C[C@]12CC[C@H](c1cnc3c(N4CCCc5ncccc54)n[nH]c3n1)CC2 (single isomer, unassigned) [Example 188, (1s, 1′R, 4S)-4-(3-(3,4-dihydro-1,5-naphthyridin-1(2H)-yl)-1H-pyrazolo[3,4-b]pyrazin-6-yl)-1′,3′-dihydrospiro[cyclohexane-1,2′-inden]-1′-amine]",> 10000

row,Structure (SMILES),IC50 [nM]
1,Cc1nc2c(cnn2-c2cccc3c(=O)n(C)ccc23)nc1N1CCC2(CC1)Oc1ccccc1[C@H]2N [Example 203],≤ 50
2,N[C@H]1c2c(F)ccc(F)c2CC12CCN(c1cnc3c(N4CCCc5ncccc54)n[nH]c3n1)CC2 [Example 62],≤ 50
3,"Cc1nc2c(N3CCCc4c3ccn(C)c4=O)n[nH]c2nc1N1CCC2(CC1)Cc1ccc(F)cc1[C@H]2N [Example 246, 1-{6-[(3S)-3-amino-5-fluoro-1,3-dihydrospiro[indene-2,4′-piperidin]-1′-yl]-5-methyl-1H-pyrazolo[3,4-b]pyrazin-3-yl}-6-methyl-1,2,3,4,5,6-hexahydro-1,6-naphthyridin-5-one]",> 10000
4,Cn1cc(-c2ccc3c(n2)CCCN3c2n[nH]c3nc(N4CCC5(CC4)Cc4ccccc4[C@H]5N)c(CO)nc23)cn1 [Example 101],50 to 1000
5,N[C@@H]1c2ccccc2CC12CN(c1cnc3c(N4CCCc5ncccc54)n[nH]c3n1)C2 [Example 115],≤ 50
6,N[C@H]1c2ccccc2CC12CCN(c1cnc3c(N4CCCc5nc(-c6ccn[nH]6)ccc54)n[nH]c3n1)CC2 [Example 3],≤ 50
7,"Cc1cnc(CO)c(N2CCC3(CC2)Cc2ccccc2[C@@H]3N)n1 (single isomer, unassigned) [Example 121]",≤ 50
8,N[C@@H]1c2ccccc2CC12CCN(c1ncc(N3CCCc4ccccc43)c(=O)[nH]1)CC2 [Example 210],> 10000
9,Cc1c(Sc2ccnc(N)c2Cl)nc2sc(N3CCC4(CC3)Cc3ccccc3[C@H]4N)nn12 [Example 223],≤ 50
10,"N[C@@H]1c2ccccc2CC12CCN(c1ncc(N3CCCCc4ccccc43)nc1CO)CC2 [Example 214, (S)-(3-(1-amino-1,3-dihydrospiro[indene-2,4′-piperidin]-1′-yl)-6-(2,3,4,5-tetrahydro-1H-benzo[b]azepin-1-yl)pyrazin-2-yl)methanol]",≤ 50
11,"Cc1cc(N2CCC3(CC2)Cc2ccccc2[C@H]3N)cc(S(C)(=O)=O)c1 [Example 271, (S)-1′-(3-methyl-5-(methylsulfonyl)phenyl)-1,3-dihydrospiro[indene-2,4′-piperidin]-1-amine]",≤ 50
12,CNC(=O)c1cc(C)nc(N2CCC3(CC2)Cc2ccccc2[C@H]3N)c1 [Example 228],> 10000
13,N[C@@H]1c2ccccc2CC12CCN(c1cnc(OCc3cccc4cccnc34)cn1)CC2 [Example 198],> 10000
14,N[C@@H]1c2ccccc2CC12CCN(c1ncnc3c(-c4cccc(Cl)c4Cl)csc13)CC2 [Example 76],≤ 50
15,"N[C@@H]1c2ccccc2O[C@]12C[C@H]1CC[C@@H](C2)N1c1cnc(SCC2CC2)cn1 [Example 274, (1′R,2r,3R,5'S)-8′-(5-((cyclopropylmethyl)thio)pyrazin-2-yl)-3H-8′-azaspiro[benzofuran-2,3′-bicyclo[3.2.1]octan]-3-amine]",1000 to 10000
16,N[C@@H]1c2ccc(F)cc2OC12CCN(c1cnc(SCC3CC3)cn1)CC2 [Example 240],≤ 50
17,Cc1c(NCc2cccnc2)ccnc1N1CCC2(CC1)Cc1ccccc1[C@H]2N [Example 199],≤ 50
18,Cn1ccc2c(c1=O)CCCN2c1n[nH]c2nc(N3CCC4(CC3)Oc3ccccc3[C@H]4N)cnc12 [Example 57],≤ 50
19,N[C@@H]1c2ccccc2CC12CCN(c1cnc3ccccc3n1)CC2 [Example 179],≤ 50
20,"Nc1nccc(Oc2cnc(N3CCC4(CC3)Cc3ccccc3[C@H]4N)cn2)c1Cl [Example 133, (3S)-1′-{5-[(2-amino-3-chloropyridin-4-yl)oxy]pyrazin-2-yl}-1,3-dihydrospiro[indene-2,4′-piperidin]-3-amine]",≤ 50
21,"N[C@@H]1c2ccccc2CC12CCN(c1ncc(N3CCCc4ncccc43)nc1CO)CC2 [Example 211, {3-[(3S)-3-amino-1,3-dihydrospiro[indene-2,4′-piperidin]-1′-yl]-6-(1,2,3,4-tetrahydro-1,5-naphthyridin-1-yl)pyrazin-2-yl}methanol]",50 to 1000
22,"N[C@H]1c2ccccc2C[C@]12CC=C(c1cnc3c(N4CCCc5ncccc54)n[nH]c3n1)CC2 [Example 174, (1R,1′R)-4-(3-(3,4-dihydro-1,5-naphthyridin-1(2H)-yl)-1H-pyrazolo[3,4-b]pyrazin-6-yl)-1′,3′-dihydrospiro[cyclohex[3]ene-1,2′-inden]-1′-amine]",≤ 50
23,"NC1C2CC2CC12CCN(c1cnc3c(N4CCCc5ncccc54)n[nH]c3n1)CC2 (centres unmarked) [Example 7, 1′-(3-(3,4-dihydro-1,5-naphthyridin-1(2H)-yl)-1H-pyrazolo[3,4-b]pyrazin-6-yl)spiro[bicyclo[3.1.0]hexane-3,4′-piperidin]-2-amine]",≤ 50
